In patent publication US7411003B1, “Inhibition of Hepatitis B virus by cyclohexenone compounds from Antrodia camphorata” (Golden Biotechnology Corporation, priority 2007, dated 2008):

Assays:
HbsAg = assay: Synthesis/secretion of HbsAg in hepatoma cell line, semi-quantitative ELISA; assay type: cell-based, hepatitis B virus; conditions: HepG2 2.2.1 cells, 22 hours
Experimental: (§1) The effects of cyclohexenone compounds of Antrodia camphorata purified from Example 1 on synthesis of HbsAg and HbeAg were tested in this example. The compound 4-hydroxy-2,3-dimethoxy-6-methyl-5(3,7,11-trimethyl-dodeca-2,6,10-trienyl)-cyclohex-2-enone from example 1 was added into the culture media of hepatoma cell line HepG2 2.2.1 to determine the synthesis of HbsAg and HbeAg with the semi-quantitative enzyme-linked immunoabsorbent assay (ELISA). These two makers were used to assess the effectiveness of cyclohexenone in HBV inhibition. […]
(§2) The HepG2 2.2.1 cells were cultivated in minimum essential medium (MEM, Gibco Co., USA) containing 12 essential amino acids, glutamine, 8 vitamins, and supplemented with 10% fetal bovine serum and 200 μg/ml of antibiotic G418 for 24 hours. […] The assay was based on formation of sandwich complexes of antibody-antigen-antibody/enzyme and stained with O-phenylenediamine (OPD) color development solution and the results were expressed as absorbance units at 450 nm. Specimens with absorbance values above the cut off value are taken as positive for HbsAg and HBeAg. […]

HbeAg = assay: Synthesis/secretion of HbeAg in hepatoma cell line, semi-quantitative ELISA; assay type: cell-based, hepatitis B virus; conditions: HepG2 2.2.1 cells, 22 hours
Experimental: as §1, §2

[1] = test system: hepatoma cell line HepG2 2.2.15; assay: In vitro cytotoxic test on hepatoma cell line, MTT assay, survival rates; assay type: cell-based, human; conditions: HepG2 2.2.1 cells, 10 μg/ml, 22 hours, compared with blank group
Experimental: Hepatoma cell inhibiting effects of cyclohexenone compounds of Antrodia camphorata from example 1 were assessed according to the anticancer-drug screening model of National Cancer Institute (NCI). The compound 4-hydroxy-2,3-dimethoxy-6-methyl-5(3,7,11-trimethyl-dodeca-2,6,10-trienyl)-cyclohex-2-enone from example 1 was added into the culture media of hepatoma cell line HepG2 2.2.15 to test the survival rates. Survival of cells was analyzed using MTT assay. HepG2 2.2.15 cell line was derived from human hepatoma, which can secrete infectious HBV.
MTT assay is commonly used to analyze cell proliferation, survival rate of viable cells and cytotoxicity. MTT (3[4,5-dimethylthiazol-2-yl]-2,5-diphenyltetrazolium bromide) is a yellow dye which can be converted to water-insoluble purple formazan on the reductive cleavage of its tetrazolium ring by the succinate tetrazolium reductase in mitrochondria of cells. The amount of formazan produced is used to detect the number of viable cells and calculate the survival rates.
The HepG2 2.2.1 cells were cultivated in minimum essential medium (MEM, Gibco Co., USA) containing 12 essential amino acids, glutamine, 8 vitamins, and supplemented with 10% fetal bovine serum and 200 μg/ml of antibiotic G418 for 24 hours. […] The absorbances were measured at 570 nm with an ELISA Reader and compared with that of the blank group to calculate the survival rates.

Structure (SMILES): COC1=C(OC)C(O)C(C/C=C(\C)CC/C=C(\C)CCC=C(C)C)C(C)C1=O (centres unmarked) [cyclohexenone from Antrodia camphorata, 4-hydroxy-2,3-dimethoxy-6-methyl-5(3,7,11-trimethyl-dodeca-2,6,10-trienyl)-cyclohex-2-enone]
- Synthesis of HbsAg (HbsAg; 0.1 μg/ml): below 60%
- Synthesis of HbsAg (decrease could reach to as low as) (HbsAg; 10 μg/ml): 28%
- Synthesis of HbeAg (HbeAg; 0.1 μg/ml): below 84%
- Synthesis of HbeAg (decrease could reach to as low as) (HbeAg; 1 μg/ml): 57%
- cell survival rates [1]: lower than 81%
